In brackets after ≈: the same amount, converted by molar mass.
How the values were obtained:
[1] = test system: L1210; experiment: In vitro inhibitory activity against Doxorubicin resistant L1210 leukemia cell lines ( ratio between IC50 values on resistant cells and sensitive cells); assay type: functional, Mus musculus
[2] = test system: L1210; experiment: In vitro inhibitory activity against FCE 24517 resistant L1210 leukemia cell lines ( ratio between IC50 values on resistant cells and sensitive cells); assay type: functional, Mus musculus
[3] = test system: L1210; experiment: The activity in vitro on L1210 murine leukemia cells, activity expressed as IC50; assay type: functional, cell-based, Mus musculus
[4] = test system: L1210; experiment: Optimal dose was measured in vivo on L1210 murine leukemia cells in CD2F1 mice(ip); assay type: functional, Mus musculus
[5] = test system: Mus musculus; experiment: Median survival time of treated mice / Median survival time of controls x100 was measured in vivo on L1210 murine leukemia cells; assay type: functional
[6] = Mus musculus, L1210, read-out: IC50

Compound	R.I [1]	R.I [2]	IC50 [3, 6] [µg/mL]	IC50 ([3]; l1210) [µg/mL]	OD [4] [mg/kg]	T/C [5] [%]
C=C(Br)C(=O)O	1.1	0.5	18.8 (≈ 125 µM)	–	–	–
O=C(O)C1CO1 (stereo not drawn)	1	0.5	–	131.397 (≈ 1490 µM)	–	–
Cl.Cn1cc(NC(=O)c2cc(NC(=O)c3cc(NC(=O)c4cc(NC=O)cn4C)cn3C)cn2C)cc1C(=O)NCCC(=N)N	175.4	169.9	0.285	–	–	–
Cl.Cn1cc(NC(=O)c2cc(NC(=O)c3cc(NC(=O)c4cc(NC(=O)C5CO5)cn4C)cn3C)cn2C)cc1C(=O)NCCC(=N)N (stereo not drawn)	1.7	24.1	0.0389	–	3.125	188
C=C(Cl)C(=O)Nc1cc(C(=O)Nc2cc(C(=O)Nc3cc(C(=O)NCCC(=N)N)n(C)c3)n(C)c2)n(C)c1.Cl	40.3	24.8	0.056	–	10	184
C=C(Br)C(=O)Nc1cc(C(=O)Nc2cc(C(=O)Nc3cc(C(=O)NCCC(=N)N)n(C)c3)n(C)c2)n(C)c1.Cl	8.8	11.4	0.0496	–	12.5	175
Cl.Cn1cc(NC(=O)c2cc(NC(=O)c3cc(NC(=O)C4CO4)cn3C)cn2C)cc1C(=O)NCCC(=N)N (stereo not drawn)	7.1	44.4	0.229	–	50	188
Cl.Cn1cc(NC(=O)c2cc(NC(=O)c3cc(NC(=O)c4cc(NC(=O)c5ccc(N(CCCl)CCCl)cc5)cn4C)cn3C)cn2C)cc1C(=O)NCCC(=N)N	–	65.4	0.0163	–	0.39	138
C=C(Br)C(=O)Nc1cc(C(=O)Nc2cc(C(=O)Nc3cc(C(=O)Nc4cc(C(=O)NCCC(=N)N)n(C)c4)n(C)c3)n(C)c2)n(C)c1.Cl	3.8	27	0.0047	–	3.125	206
C=C(Cl)C(=O)Nc1cc(C(=O)Nc2cc(C(=O)Nc3cc(C(=O)Nc4cc(C(=O)NCCC(=N)N)n(C)c4)n(C)c3)n(C)c2)n(C)c1.Cl	59.9	69.6	0.0027	–	3.125	171
Cn1cc(NC(=O)c2cc(NC(=O)c3cc(NC=O)cn3C)cn2C)cc1C(=O)NCCC(=N)N [STALLIMYCIN]	45.6	14.1	5.22 (≈ 10.8 µM)	–	200	113
Cl.Cn1cc(NC(=O)c2cc(NC(=O)c3cc(NC(=O)c4ccc(N(CCCl)CCCl)cc4)cn3C)cn2C)cc1C(=O)NCCC(=N)N [TALLIMUSTINE CHLORIDE]	28	21.7	0.0244	–	3.125	175
